Measured values from US10308620B2, “Muscarinic M1 receptor positive allosteric modulators” (SUVEN LIFE SCIENCES LIMITED, priority 2015, dated 2019).
Where two headings read alike, the source gives them in different places.

Assays:
[1] = biological target: recombinant human Muscarinic M1 receptor (Homo sapiens (Human), UniProt P11229); test: Allosteric potency EC50, CHO cells with pCRE-Luc reporter, in presence of EC20 of acetylcholine; assay type: cell-based; details: 4 hours
How it was run: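 Stable CHO cells carrying human M1 receptor and a pCRE-Luc reporter, serum-starved overnight, then exposed to rising compound concentrations plus EC20 acetylcholine in OptiMEM for 4 h at 37 °C. Luciferase read after lysis. EC50 is the concentration giving 50% luciferase stimulation with EC20 acetylcholine present.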

[2] = tested on: Male Wistar rats; test: Object recognition task model (time induced memory deficit); assay type: in vivo, rat; details: 1 mg/kg, p.o.; for Exploration time mean ± S.E.M, Familiar object / Exploration time mean ± S.E.M, Novel object: choice trial 24 hours after T1
Procedure: Object Recognition Task Model
(§1) The cognition enhancing properties of compounds of this invention were estimated by using this model.
(§2) Male Wistar rats (8-10 weeks old) were used as experimental animals. Four animals were housed in each cage. Animals were kept on 20% food deprivation from a day prior to experimentation. Water was provided ad libitum throughout the experiment. Animals were maintained on a 12 hours light/dark cycle in temperature and humidity controlled room. The experiment was carried out in an open field made up of acrylic. Rats were habituated to individual arenas (open field) for 1 hour in the absence of any objects on day 1.
One group of 12 rats received vehicle and another set of animals received test compounds or test compounds and Donepezil, before the familiar (T1) and choice (T2) trials. During the familiarization phase, (T1), the rats were placed individually in the arena for 3 minutes, in which two identical objects (a1 and a2) were positioned 10 cm from the wall. 24 hours after T1, trial for long-term memory test was performed. The same rats were placed in the same arena as they were placed in T1 trial. During the choice phase (T2) rats were allowed to explore the arena for 3 minutes in presence of a copy of familiar object (a3) and one novel object (b). During the T1 and T2 trial, explorations of each object (defined as sniffing, licking, chewing or having moving vibrissae whilst directing the nose towards the object at a distance of less than 1 cm) were recorded using stopwatch.
(§3) T1 is the total time spent exploring the familiar objects (a1+a2).
(§4) T2 is the total time spent exploring the familiar object and novel object (a3+b). Discriminative index=Time spent with novel object/(time spent with novel and familiar object).
The object recognition test was performed as described in Behavioural Brain Research, 1988, 31, 47-59.

[3] = tested on: Male Wistar rats; test: Object recognition task model - scopolamine challenge; assay type: in vivo, rat; details: 0.3 mg/kg, p.o., with scopolamine
Procedure: Object Recognition Task Model—Scopolamine Challenge
as §1, §2
Rats received vehicle or vehicle and scopolamine or compound of the formula (I) and scopolamine, before the familiar (T1). During the familiarization phase, (T1), the rats were placed individually in the arena for 3 minutes, in which two identical objects (a1 and a2) were positioned 10 cm from the wall. 3 minutes after T1, trial for memory test was performed. The same rats were placed in the same arena as they were placed in T1 trial. During the choice phase (T2) rats were allowed to explore the arena for 3 minutes in presence of a copy of familiar object (a3) and one novel object (b). During the T1 and T2 trial, explorations of each object (defined as sniffing, licking, chewing or having moving vibrissae whilst directing the nose towards the object at a distance of less than 1 cm) were recorded using stopwatch.
as §3, §4

[4] = Rodent pharmacokinetic study; assay type: in vivo, rat; details: male Wistar rats; for clearance / half-life / Vd / Cmax / Tmax / bioavailability: rat, plasma; for Vd: read-out: Vz; for bioavailability: 3 mg/kg oral vs 1 mg/kg i.v.
Procedure: Rodent Pharmacokinetic Study
Male Wistar rats (260±50 grams) were used as experimental animals. Animals were housed individually in polypropylene cage. Two days prior to study, male Wistar rats were anesthetized with isoflurane for surgical placement of jugular vein catheter. Rats were randomly divided for oral (3 mg/kg) and intravenous (1 mg/kg) dosing (n=3/group) and fasted overnight before oral dosing (p.o.). However, rats allocated to intravenous (i.v.) dosing food and water was provided ad libitum.
At pre-determined point, blood was collected through jugular vein and replenished with an equivalent volume of normal saline. Collected blood was transferred into a labeled eppendorf tube containing 10 μL of heparin as an anticoagulant. Typically blood samples were collected at following time points: 0.08, 0.25, 0.5, 1, 2, 4, 6, 8, and 24 hours post dose. Blood was centrifuged at 4000 rpm for 10 minutes. Plasma was separated and stored frozen at −80° C. until analysis. The concentrations of the test compounds were quantified in plasma by qualified LC-MS/MS method using suitable extraction technique. The test compounds were quantified in the calibration range around 1-1000 ng/mL in plasma. Study samples were analyzed using calibration samples in the batch and quality control samples spread across the batch.
Pharmacokinetic parameters Cmax, Tmax, AUCt, T1/2, clearance, Vz and bioavailability were calculated by non-compartmental model using standard non-compartmental model by using Phoenix WinNonlin 6.0.2 or 6.0.3 version Software package.

[5] = Rodent brain penetration study; assay type: in vivo; details: rat, oral, 3 mg/kg, p.o., male Wistar rats, read-out: Single dose Rat Brain Penetration (Cb/Cp)
Procedure: Rodent Brain Penetration Study
Male Wistar rats (260±40 grams) were used as experimental animals. Three animals were housed in each cage. Animals were given water and food ad libitum throughout the experiment and maintained on a 12 hours light/dark cycle.
Brain penetration was determined in discrete manner in rats. One day prior to dosing day, male Wistar rats were acclimatized and randomly grouped according to their weight. At each time point (0.50, 1 and 2 hours) n=3 animals were used.
The test compounds were suitably preformulated and administered orally at (free base equivalent) 3 mg/kg. Blood samples were removed via cardiac puncture by using isoflurane anesthesia. The animals were sacrificed to collect brain tissue. Plasma was separated and brain samples were homogenized and stored frozen at −20° C. until analysis. The concentrations of the test compounds in plasma and brain were determined using LC-MS/MS method.
The test compounds were quantified in plasma and brain homogenate by qualified LC-MS/MS method using suitable extraction technique. The test compounds were quantified in the calibration range of 1-500 ng/mL in plasma and brain homogenate. Study samples were analyzed using calibration samples in the batch and quality control samples spread across the batch. Extent of brain-plasma ratio was calculated (Cb/Cp).

[6] = biological target: M1 muscarinic receptor (Homo sapiens (Human), UniProt P11229); details: cited from earlier work
[7] = cited from earlier work
[8] = cited from earlier work; remark: listed apart in the source
[9] = choice trial 3 minutes after T1

recombinant human Muscarinic M1 receptor, sequence (P11229 whole entry): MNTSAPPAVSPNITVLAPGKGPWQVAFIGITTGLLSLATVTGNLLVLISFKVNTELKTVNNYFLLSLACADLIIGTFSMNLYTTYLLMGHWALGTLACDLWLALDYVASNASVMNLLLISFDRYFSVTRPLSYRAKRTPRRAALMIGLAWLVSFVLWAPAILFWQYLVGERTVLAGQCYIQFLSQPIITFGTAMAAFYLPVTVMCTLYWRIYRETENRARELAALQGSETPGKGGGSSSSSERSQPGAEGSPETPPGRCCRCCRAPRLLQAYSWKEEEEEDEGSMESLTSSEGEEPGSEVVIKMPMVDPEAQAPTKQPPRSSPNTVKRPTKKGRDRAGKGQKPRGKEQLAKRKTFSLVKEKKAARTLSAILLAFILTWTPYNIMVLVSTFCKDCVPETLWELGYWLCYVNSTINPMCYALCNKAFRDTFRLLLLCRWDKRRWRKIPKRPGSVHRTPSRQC

EC50 [1]	AUC0-t ([4]; 1 mg/kg i.v. (bolus))	AUC0-t ([4]; 3 mg/kg oral (gavage))	clearance ([4]; iv, 1 mg/kg i.v. (bolus))	half-life ([4]; iv, 1 mg/kg i.v. (bolus))	Vd ([4]; iv, 1 mg/kg i.v. (bolus))	Cmax ([4]; 3 mg/kg oral (gavage))	Tmax ([4]; 3 mg/kg oral (gavage))	half-life ([4]; 3 mg/kg oral (gavage))	bioavailability [4]	Kp [5]	Compound	Inference [2]	Exploration time mean ± S.E.M, Familiar object [2]	Exploration time mean ± S.E.M, Novel object [2]	other results
422 nM	834 ± 101 ng·h/mL	989 ± 386 ng·h/mL	19 ± 2 mL/min/kg	2.3 ± 0.7 h	4 ± 1.4 L/kg	419 ± 162 ng/mL	0.5 h	2.3 ± 1.1 h	40 ± 15%	1.18 ± 0.38	O=C(N[C@H]1CCCC[C@@H]1O)C1=CN(Cc2ccccc2F)c2ccccc2O1 [Example 1, N-(cis-1S, 2S-2-Hydroxycyclohexyl)-4-(2-fluorobenzyl)-4H-benzo[1,4]oxazine-2-carboxamide]	Active	10.93 ± 1.98 s	19.27 ± 2.94 s	Inference [3]: Active; Exploration time mean ± S.E.M, Familiar object [3, 9]: 11.57 ± 1.51 s; Exploration time mean ± S.E.M, Novel object [3, 9]: 22.66 ± 2.90 s
323 nM	419 ± 182 ng·h/mL	437 ± 138 ng·h/mL	44 ± 21 mL/min/kg	1.5 ± 0.9 h	6.8 ± 7.1 L/kg	428 ± 78 ng/mL	0.42 ± 0.14 h	1.2 ± 0.6 h	35 ± 11%	0.32 ± 0.02	O=C(N[C@H]1CCCC[C@@H]1O)C1=CN(Cc2ccncc2)c2ccccc2O1 [Example 23, N-(cis-1S,2S-2-Hydroxycyclohexyl)-4-(pyridin-4-ylmethyl)-4H-benzo[1,4]oxazine-2-carboxamide]	Active	13.15 ± 1.55 s	17.99 ± 2.53 s	
											N#CC1(c2ccccn2)CCN(Cc2cc(C(=O)O)c(=O)n3ccccc23)CC1 [PQCA, 1-{[4-cyano-4-(pyridine-2-yl)piperidin-1-yl]methyl}-4-oxo-4H-quinolizine-3-carboxylic acid]				selectivity for M1 over the other muscarinic receptor sub types [6]: highly selective; gastrointestinal side effects ([7]; at doses equal to or less than a fivefold margin from the minimum effective dose): no gastrointestinal side effects; efficacy in preclinical models of cognition ([7]; in vivo): efficacious
											CCCCCCOc1nsnc1C1=CCCN(C)C1 [Xanomeline]				effects on cognition ([8]; clinical Alzheimer's disease trial): significant effects on cognition; gastrointestinal side effects ([8]; clinical trials): gastrointestinal side effects led to a high dropout rate
